# Laboratory results as given in patent publication US9149465B2, “Isoxazolines as inhibitors of fatty acid amide hydrolase” (Infinity Pharmaceuticals, Inc., priority 2009, dated 2015).
# Target: T1, human FAAH (Homo sapiens, UniProt O00519)
# T1 construct: host or cells: COS-7 cells, transient transfection; 13,000 g membrane fraction solubilised in 1% Triton X-100
# T1 sequence (O00519 1-579): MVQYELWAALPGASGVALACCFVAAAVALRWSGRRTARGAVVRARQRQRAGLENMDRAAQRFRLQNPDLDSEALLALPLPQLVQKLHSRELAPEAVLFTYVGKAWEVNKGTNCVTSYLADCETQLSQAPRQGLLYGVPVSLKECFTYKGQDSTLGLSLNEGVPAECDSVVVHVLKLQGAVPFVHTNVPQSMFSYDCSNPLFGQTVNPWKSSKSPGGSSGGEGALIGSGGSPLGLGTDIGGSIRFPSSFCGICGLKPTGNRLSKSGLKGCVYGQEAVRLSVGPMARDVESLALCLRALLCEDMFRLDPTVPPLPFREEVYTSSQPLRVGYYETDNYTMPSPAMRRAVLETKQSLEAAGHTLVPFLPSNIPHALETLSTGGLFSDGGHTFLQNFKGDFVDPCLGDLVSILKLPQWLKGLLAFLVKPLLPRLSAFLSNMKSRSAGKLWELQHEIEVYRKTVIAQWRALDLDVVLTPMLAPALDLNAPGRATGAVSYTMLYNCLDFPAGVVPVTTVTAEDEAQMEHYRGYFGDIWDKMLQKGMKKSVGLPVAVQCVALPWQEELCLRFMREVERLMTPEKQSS
# Assay: Inhibition of human FAAH (AMC arachidonoyl amide fluorescence assay)
# Type: biochemical
# Settings: inhibitor preincubated 30 minutes at room temperature; 20 μM AMC arachidonoyl amide; 4 hours; read-out: Activity (Ki, inhibitors of human FAAH)
# Experimental: Human FAAH Preparation: COS-7 cells were split the day before, 1:5 into 150 mm x […] cell culture dishes (Corning Inc., Cat. No. 430599). Transient transfection took place at 30-40% confluency according to FuGENE 6 Transfection Reagent (Roche, Cat. No. 11814 443 001).
# Transfection Procedure: The FuGENE transfection 6 reagent (45 uL) was added to 1410 μL of media (DMEM, serum free without pen/strep) in a 15 mL conical tube and incubated at room temp for 5 minutes, followed by the addition of FAAH plasmid DNA (15 μg) (OriGene Cat. No. TC119221, Genbank Accession No. NM_001441.1, 0.67 ug/uL) and a further incubation of 15 minutes at room temperature. The resulting solution was added into one dish of 30-40% confluent COS-7 cells in a drop-wise manner. The COS-7 cell dish was subsequently incubated for 48 hours. The cells are then harvested.
# Harvest procedure: Media was aspirated from the dishes and the cells rinsed with 10 mL PBS. The PBS was removed and 3 mL of PBS added to the dish. The dish was scraped to resuspend the cells, and the subsequent cell suspension collected into a 15 mL conical tube. The cells were pelleted by centrifugation at 1200 rpm for 5 minutes in a bench top centrifuge. PBS was removed and the cell pellet snap frozen in liquid nitrogen and stored at −80° C.
# COS-7 cells —FAAH purification: • (1) Fractionation: Frozen cell pellets from transient transfections were thawed on ice and resuspended in 12.5 mM Hepes pH 8.0, 100 mM NaCl, 1 mM EDTA (10 mL/0.2 g cell pellet). The pellets were dounce homogenized and then sonicated to produce cell extract. The cell extract was subsequently centrifuged at 1000 g to remove cellular debris. The pellet was discarded and the supernatant centrifuged at 13,000 g for 20 minutes. The pellet contained membrane bound FAAH. The supernatant was discarded and the pellet resolubilized. • (2) Re-solubilization: The fraction of interest, (13,000 g, membrane fraction) was re-suspended in 2.3 mL re-suspension buffer (20 mM Hepes pH 7.8, 10% v/v Glycerol, 1 mM EDTA, 1% Triton X-100) and the sample incubated on ice for 1 hour and then centrifuged to remove any particulate matter. The supernatant containing solubilized human FAAH was aliquoted and snap frozen in liquid nitrogen and stored at −80° C. until use. • (3) Characterization: Protein Concentration determined by Bradford assay. • SDS gel and Western blot to confirm presence of FAAH • FAAH activity assay • Km determination-96-well assay • Linear dependence—96-well assay • Standard compound Ki determination—384-well assay
# Human FAAH assay; Experimental Protocol: A 0.1 mg/mL Human FAAH solution was made up in FAAH reaction buffer, and 24 ul pipeted into a 384 well plate. To this was added 1 μL of a 3 fold serially diluted inhibitor from a DMSO stock solution. The FAAH solution and inhibitor were incubated for 30 minutes at room temperature. The FAAH reaction was initiated by the addition of 25 μL of 40 μM AMC Arachidonoyl Amide in FAAH reaction buffer, yielding a final reaction human FAAH preparation concentration of 0.05 mg/ml and AMC-Arachidonoyl substrate concentration of 20 μM, reaction volume 50 μL. The reaction was allowed to proceed for 4 hours at room temperature. The reaction was stopped by the addition of 25 μL 12 μM a-ketoheterocycle (Cayman Chemicals, catalogue #10435). The microtiter plate was read in the envision plate reader.
# The raw fluorescence was plotted on the y axis and the inhibitor concentration on the x axis to give a dose response inhibition curve. The data was fitted to a single site competitive inhibition equation, fixing the Km for the human enzyme to 12 μM and 9 μM respectively.
row,Ki,SMILES
1,≤ 100 nM,FC(F)(F)Oc1ccc([C@H]2CC(Br)=NO2)cc1Cl (racemic) [I-124]
2,≤ 100 nM,CS(=O)(=O)NC(=O)c1ccc(OC2=NOC(c3ccc(OC(F)(F)F)cc3)C2)cn1 (racemic) [I-220]
3,≥ 1000 nM,c1ccc(Oc2ccc(C3CC(N4CCCC4)=NO3)cc2)cc1 (racemic) [I-256]
4,≤ 100 nM,CC(C)Oc1ccc([C@H]2CC(Oc3ccc(C(=O)O)nc3)=NO2)cc1 (racemic) [I-140]
5,≥ 1000 nM,O[C@H](CNC1=NOC(c2ccc(Oc3ccccc3)cc2)C1)c1ccccc1 (mixture of isomers) [I-245]
6,≤ 100 nM,O=C(O)c1ccc(OC2=NOC(c3ccc(OC(F)(F)F)cc3)C2)cn1 (racemic) [I-97]
7,100 to 1000 nM,C#CCOc1ccc([C@H]2CC(Oc3cncnc3)=NO2)cc1 (racemic) [I-143]
8,≤ 100 nM,"BrC1=NOC(c2ccc(-c3nnc(-c4ccccc4)o3)cc2)C1 (single isomer, unassigned) [I-19]"
9,≤ 100 nM,CCCCc1ccc(C2CC(Oc3ccc(S(C)(=O)=O)nc3)=NO2)cc1 (racemic) [I-181]
10,≤ 100 nM,COc1ccc([C@H]2CC(Br)=NO2)cc1 (racemic) [I-6]
11,≤ 100 nM,FC(F)(F)Oc1ccc(C2CC(Oc3ccc(-c4ccc[nH]4)nc3)=NO2)cc1 (racemic) [I-173]
12,≤ 100 nM,"Fc1cncc(OC2=NOC(c3ccc(Oc4ccccc4)cc3)C2)c1 (single isomer, unassigned) [I-43]"
13,≤ 100 nM,"c1ccc(Oc2ccc(C3CC(Oc4cncnc4)=NO3)cc2)cc1 (single isomer, unassigned) [I-41]"
14,≤ 100 nM,CS(=O)(=O)c1ccc(OC2=NOC(c3ccc(Oc4ccccc4)cc3)C2)cn1 (racemic) [I-197]
15,≤ 100 nM,Cn1cc(-c2ccc(OC3=NOC(c4ccc(OC(F)(F)F)cc4)C3)cn2)cn1 (racemic) [I-218]
16,≤ 100 nM,Cc1nnc(-c2ccc(OC3=NOC(c4ccc(Oc5ccccc5)cc4)C3)cn2)o1 (racemic) [I-155]
17,≤ 100 nM,CS(=O)(=O)c1ccc(OC2=NO[C@@H](c3ccc(Br)cc3)C2)cn1 (racemic) [I-237]

row,Ki,SMILES
1,≤ 100 nM,CC(=O)Nc1ccc(OC2=NOC(c3ccc(Oc4ccccc4)cc3)C2)cn1 (racemic) [I-94]
2,≤ 100 nM,"BrC1=NOC(c2ccc(Oc3ncccn3)cc2)C1 (single isomer, unassigned) [I-13]"
3,≤ 100 nM,COC(=O)c1ccc(OC2=NOC(c3ccc(OC(F)(F)F)cc3)C2)cn1 (racemic) [I-96]
4,≥ 1000 nM,O=C(O)c1cccc(OC2=NOC(c3ccc(OC(F)(F)F)cc3)C2)c1 (racemic) [I-176]
5,≤ 100 nM,NS(=O)(=O)c1ccc(OC2=NOC(c3ccc(Oc4ccccc4)cc3)C2)cc1 (racemic) [I-90]
6,≥ 1000 nM,O=C(O)c1cncc(OC2=NOC(c3ccc(OC(F)(F)F)cc3)C2)c1 (racemic) [I-55]
7,≥ 1000 nM,"c1ccc(Oc2ccc(C3CC(Oc4ccncc4)=NO3)cc2)cc1 (single isomer, unassigned) [I-36]"
8,≤ 100 nM,CCCCOc1ccc([C@H]2CC(Oc3ccc(C(=O)O)nc3)=NO2)cc1 (racemic) [I-138]
9,≤ 100 nM,CS(=O)(=O)c1ccc(OC2=NO[C@@H](c3ccc(C(=O)NCc4ccccc4)cc3)C2)cn1 (racemic) [I-214]
10,100 to 1000 nM,CC1(c2ccc(OC(F)(F)F)cc2)CC(Oc2cncc(-c3n[nH]c(=O)o3)c2)=NO1 (racemic) [I-231]
11,≤ 100 nM,FC(F)(F)Oc1ccc(C2CC(Oc3ccc(-c4nnco4)cc3)=NO2)cc1 (racemic) [I-201]
12,100 to 1000 nM,FC(F)(F)Oc1ccc(C2CC(Oc3cccc(-c4nnn[nH]4)c3)=NO2)cc1 (racemic) [I-174]
13,≤ 100 nM,CCS(=O)(=O)c1ccc(OC2=NOC(C)(c3ccc(OC(F)(F)F)cc3)C2)cn1 (racemic) [I-196]
14,≥ 1000 nM,O[C@@H](CNC1=NOC(c2ccc(OC(F)(F)F)cc2)C1)c1ccccc1 (mixture of isomers) [I-246]
15,≥ 1000 nM,"c1ccc(Oc2ccc(C3CC(n4cccn4)=NO3)cc2)cc1 (single isomer, unassigned) [I-35]"
16,≤ 100 nM,COC(=O)c1ccc(OC2=NO[C@@H](c3ccc(Br)cc3)C2)cn1 (racemic) [I-149]
